Test results from patent US9040523B2, “Antifungal 5,6-dihydro-4H-pyrrolo[1,2-α][1,4]-benzodiazepines and 6H-pyrrolo[1,2-α][1,4]benzodiazepines substituted with benzene derivatives” (JANSSEN PHARMACEUTICA NV, priority 2010, dated 2015).

Experiments:
[1] = test system: Trichophyton rubrum B68183; experiment: Antifungal activity in vitro (resazurin susceptibility screen), Inf. C; assay type: cell-based; details: Trichophyton rubrum B68183; 27 °C, 7 days, resa time 24 hours; read-out: Inf. C pIC50 (converted)
Outline: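 Susceptibility was tested on pre-made plates bearing spotted serial compound dilutions (stored at 4 °C in darkness, maximum 2 weeks). Cryopreserved fungal stocks, diluted 1/1000 right before use, supplied 10^3 cfu per well, with drug-free and medium-only wells as controls.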

[2] = test system: Trichophyton mentagrophytes B70554; experiment: Antifungal activity in vitro (resazurin susceptibility screen), Inf. G; assay type: cell-based; details: Trichophyton mentagrophytes, B70554, Trichophyton mentagrophytes B70554; 27 °C, 7 days, resa time 24 hours; read-out: Inf. G pIC50 (converted)
Outline: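 Each well was inoculated with 10^3 cfu of fungus onto dried, pre-spotted compound serial dilutions in RPMI-MOPS medium, with fungal growth read by resazurin. Growth was referenced to drug-free culture (100%) and medium-only (0%) controls on each plate.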

CYP1A2 = biological target: T1, CYP1A2 (Homo sapiens, UniProt P05177); experiment: Cytochrome P450 inhibition, Protocol A, cDNA expressed proteins, fluorogenic substrate; assay type: in vitro ADME; details: % inhibition at 10 μM; substrate CEC; cDNA expressed protein
T1 sequence (P05177 1-516): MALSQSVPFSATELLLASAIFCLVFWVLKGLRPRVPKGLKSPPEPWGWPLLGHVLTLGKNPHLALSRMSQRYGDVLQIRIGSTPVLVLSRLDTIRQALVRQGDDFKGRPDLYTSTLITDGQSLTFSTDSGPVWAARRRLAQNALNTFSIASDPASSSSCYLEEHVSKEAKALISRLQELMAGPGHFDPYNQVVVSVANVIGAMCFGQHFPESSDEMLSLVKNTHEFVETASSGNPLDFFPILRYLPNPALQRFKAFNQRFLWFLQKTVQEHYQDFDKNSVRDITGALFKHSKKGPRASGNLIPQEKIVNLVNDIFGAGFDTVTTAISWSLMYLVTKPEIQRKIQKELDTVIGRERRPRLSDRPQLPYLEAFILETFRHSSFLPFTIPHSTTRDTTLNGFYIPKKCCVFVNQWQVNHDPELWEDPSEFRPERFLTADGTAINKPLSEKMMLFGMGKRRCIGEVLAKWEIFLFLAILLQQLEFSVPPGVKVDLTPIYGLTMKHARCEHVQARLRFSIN
Outline: (§1)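 cDNA-expressed enzymes with fluorogenic substrates (three separate ones for CYP3A4) in sodium/potassium buffer pH 7.4 plus NADPH-generating system. Compounds at 1 nM to 10 μM final, prewarmed 5 min at 37° C, reaction started with NADP+, stopped, then fluorescence measured.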

CYP2C9 = CYP2C9 (Homo sapiens, UniProt P11712); experiment: as above; assay type: in vitro ADME; details: % inhibition at 10 μM; substrate MFC; cDNA expressed protein
Sequence of CYP2C9 (P11712 whole entry): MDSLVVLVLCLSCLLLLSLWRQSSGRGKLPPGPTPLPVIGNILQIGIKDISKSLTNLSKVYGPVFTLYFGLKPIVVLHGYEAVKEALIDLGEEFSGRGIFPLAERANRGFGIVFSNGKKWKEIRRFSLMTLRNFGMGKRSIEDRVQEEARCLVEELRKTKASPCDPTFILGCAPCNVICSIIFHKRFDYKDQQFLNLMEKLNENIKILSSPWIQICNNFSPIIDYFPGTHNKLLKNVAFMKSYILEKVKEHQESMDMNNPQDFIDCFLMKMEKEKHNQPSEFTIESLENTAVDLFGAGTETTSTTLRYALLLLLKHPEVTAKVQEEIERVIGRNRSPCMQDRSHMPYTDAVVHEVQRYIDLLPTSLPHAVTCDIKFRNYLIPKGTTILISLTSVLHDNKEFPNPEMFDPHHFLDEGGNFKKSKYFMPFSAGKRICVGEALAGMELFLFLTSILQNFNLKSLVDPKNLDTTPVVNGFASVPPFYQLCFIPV
Outline: as §1

[3] = Plasma protein binding assay (rapid equilibrium device); assay type: in vitro ADME; details: guinea pig plasma, equilibrium dialysis 4 h at 37 °C, read-out: fraction bound (converted)
Procedure: Plasma was freshly prepared by centrifugation of guinea pig blood for 10 min at 1900 g in K3-EDTA (Ethylenediaminetetraacetic acid) coated tubes. The plasma protein binding of compounds was assessed at 5 μM concentrations as described by Van Liemp et al. 2010 (Van Liemp S, Morrison D, Sysmans L, Nelis P & Mortishire-Smith R (2010). Development and Validation of a Higher-Throughput Equilibrium Dialysis Assay for Plasma Protein Binding. Journal of the Association for Laboratory Automation, 2010, in press) using a rapid equilibrium device (RED). Briefly, guinea pig plasma was mixed with 5 μM test compound and then applied to the RED. Equilibrium was achieved after 4 h incubation at 37° C. Compound concentrations in the buffer and plasma compartment of the device were measured by LC-MS/MS.

[4] = test system: Scedosporium prolificans IHEM21157; experiment: Antifungal activity in vitro (resazurin susceptibility screen), Inf. I; assay type: cell-based; details: Lomentospora prolificans, 37 °C, 48 hours, resa time 17 hours, read-out: Inf. I pIC50 (converted)
Procedure: The standard susceptibility screen was performed in 96-well plates (U-bottom, Greiner Bio-One). […] These serial dilutions (10 n1) were then spotted onto test-plates that could be stored in the dark at 4° C. for a maximum period of 2 weeks. […] The different fungal species/isolates (Table 3a) were cryopreserved and 1/1000 diluted in medium just prior to use. A standard inoculum of 200 μl containing 10^3 colony-forming unit (cfu) was then added to each well. A positive control (100% growth=fungal culture without antifungal) and a negative control (0% growth ═RPMI-MOPS medium) were included on each plate. […] [table]

[5] = Liver metabolic stability assay, mLM; assay type: in vitro ADME; details: mouse liver microsomes, 1 mg protein/ml, 5 μM test compound, 15 min, 37 °C
Procedure: Liver preparations (microsomal fractions) were obtained from BD Gentest (San Jose, Calif., US). Metabolic stability was assessed using the following assay conditions. […] The mixture was pre-incubated at 37° C. for 5 min and the enzymatic reaction was started by addition of 5 μM test compound. After 0 (control) and 15 minutes (min), the reactions were terminated by addition of […] (500 μl). The precipitated material was removed by centrifugation at 1200 g for 10 min. The supernatant was analysed by LC-MS/MS on a ThermoFinnigan LCQ Deca XP ion-trap mass spectrometer equipped with an atmospheric pressure chemical ionisation source. Calculation of %-compound remaining was as described by Kantharaj et al. 2003 ((Kantharaj E., Tuytelaars A, Proost P E A, Ongel Z, van […] (2003). Simultaneous measurement of drug metabolic stability and identification of metabolites using ion-trap mass spectrometry.

CC(=O)c1ccc(C2=NCc3cccc(Cl)c3-n3cccc32)cc1 [Compound 15, 1-[4-(10-chloro-6H-pyrrolo[1,2-a][1,4]benzodiazepin-4-yl)phenyl]-ethanone]
IC50 [1]: 126 nM
melting point: 171.4 to 171.8 °C
IC50 [2]: 398 nM
hCYP1A2_CEC_Pct_Inh (CYP1A2): 38%
hCYP2C9_MFC_Pct_Inh (CYP2C9): 60%
fraction unbound at 4 h, 5 μM [3]: 0.0152
IC50 [4]: 2000 nM

CC(=O)c1cccc(C2=NCc3c(Cl)cccc3-n3cccc32)c1 [Compound 16, 1-[3-(7-chloro-6H-pyrrolo[1,2-a][1,4]benzodiazepin-4-yl)phenyl]-ethanone]
IC50 [1]: 50.1 nM
IC50 [2]: 398 nM
%-compound metabolised Met_mLM [5]: 97%
hCYP1A2_CEC_Pct_Inh (CYP1A2): 55%
hCYP2C9_MFC_Pct_Inh (CYP2C9): 84%
IC50 [4]: > 63100 nM

CC(=O)c1cc(C2=NCc3c(Cl)cccc3-n3cccc32)ccc1F [Compound 19, 1-[5-(7-chloro-6H-pyrrolo[1,2-a][1,4]benzodiazepin-4-yl)-2-fluorophenyl]-ethanone]
IC50 [1]: 200 nM
melting point: 146.2 to 147.7 °C
IC50 [2]: 794 nM
hCYP1A2_CEC_Pct_Inh (CYP1A2): 44%
hCYP2C9_MFC_Pct_Inh (CYP2C9): 60%
IC50 [4]: 1260 nM

CC(=O)c1ccc(C2=NCc3c(F)cccc3-n3cccc32)cc1 [Compound 20, 1-[4-(7-fluoro-6H-pyrrolo[1,2-a][1,4]benzodiazepin-4-yl)phenyl]-ethanone]
IC50 [1]: 100 nM
melting point: 215.2 to 216 °C
IC50 [2]: 398 nM
hCYP1A2_CEC_Pct_Inh (CYP1A2): 18%
hCYP2C9_MFC_Pct_Inh (CYP2C9): 43%
IC50 [4]: 631 nM

CC(=O)c1ccc(C2=NCc3c(Cl)cc(Cl)cc3-n3cccc32)cc1 [Compound 22, 1-[4-(7,9-dichloro-6H-pyrrolo[1,2-a][1,4]benzodiazepin-4-yl)phenyl]-ethanone]
IC50 [1]: 50.1 nM
melting point: 250.2 to 254.2 °C
IC50 [2]: 316 nM
%-compound metabolised Met_mLM [5]: 37%
hCYP1A2_CEC_Pct_Inh (CYP1A2): 20%
hCYP2C9_MFC_Pct_Inh (CYP2C9): 85%
IC50 [4]: 1260 nM

CC(=O)c1ccc(C2=NCc3c(F)cc(F)cc3-n3cccc32)cc1 [Compound 24, 1-[4-(7,9-difluoro-6H-pyrrolo[1,2-a][1,4]benzodiazepin-4-yl)phenyl]-ethanone]
IC50 [1]: 126 nM
melting point: 226.9 to 230 °C
IC50 [2]: 631 nM
hCYP1A2_CEC_Pct_Inh (CYP1A2): 18%
hCYP2C9_MFC_Pct_Inh (CYP2C9): 54%
IC50 [4]: 2510 nM
